From ChEMBL document CHEMBL1149636

Target: Carbonic anhydrase 4 (Homo sapiens) (UniProt P22748)
Sequence (P22748 whole entry): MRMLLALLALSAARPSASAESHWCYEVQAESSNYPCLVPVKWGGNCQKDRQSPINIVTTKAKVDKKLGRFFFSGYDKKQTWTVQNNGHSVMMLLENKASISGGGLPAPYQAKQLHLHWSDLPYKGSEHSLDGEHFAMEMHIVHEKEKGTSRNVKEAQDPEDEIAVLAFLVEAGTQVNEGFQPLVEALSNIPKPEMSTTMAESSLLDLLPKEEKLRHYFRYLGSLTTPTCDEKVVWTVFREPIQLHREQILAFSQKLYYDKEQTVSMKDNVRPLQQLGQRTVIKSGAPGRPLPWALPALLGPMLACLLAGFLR
Description: Inhibition of human recombinant full length CA4 by stopped-flow technique

- Kinact: 3.95 µM
Compound: CCNC1CN(CCCOC)S(=O)(=O)c2sc(S(N)(=O)=O)cc21 (single isomer, unassigned)
